Laboratory results reported in patent publication US8741659B2, “Composition for measuring the binding affinity between nucleic acid and test substance, and use thereof” (Osaka University, priority 2007, dated 2014).

What was measured:
RRE [1] = test: Displacement assay using Rev peptide after formation of complex with RRE; format: binding, HIV-1; conditions: for fluorescence intensity in displacement assay / recovery rate of the fluorescence intensity: compound and RRE each 2 μM
Protocol: In this Example, a binding affinity between a test substance and RRE was evaluated, with use of the compounds, X2S, X2S(3), X2S(4), X2S(5), X2S(2-Me), and 3,6-X2S(2). As the test substance, Rev protein used in Example 5 was used.
Firstly, in the same manner as in Example 3, the above compounds and RREs were respectively dissolved in cacodylate buffer solutions (sodium cacodylate: 10 mM pH 7.0, NaCl: 100 mM) each at 2 μM, so that an X2S-RRE solution, an X2S(3)-RRE solution, an X2S(4)-RRE solution, an X2S(5)-RRE solution, an X2S(2-Me)-RRE solution, and a 3,6-X2S(2)-RRE solution were prepared.
To each of these solutions, Rev protein was added in stages at 0 μM, 0.4 μM, 0.8 μM, 1.2 μM, 1.6 μM, 2.0 μM, 2.4 μM, 2.8 μM, 3.2 μM, 3.6 μM, and 4.0 μM. Further, a fluorescence intensity was measured at each concentration. The fluorescence intensity was measured in the same manner as that described in Example 14.
Each of FIGS. 43 to 48 is a view illustrating a result of the measurement of a binding affinity between Rev protein and RRE. […] In each of FIGS. 43 to 48, the horizontal axis represents the fluorescence wavelength, whereas the vertical axis represents the fluorescence intensity. […] Further, along the direction of the arrow extending from the curved line at the bottom, the curved lines, showing the respective results, are arranged in order of increasing amount of the test substance which was added.
FIG. 49 is a view illustrating a relationship between an amount of Rev added and a fluorescence intensity, in connection with X2S, X2S(3), X2S(4), X2S(5), X2S(2-Me), and 3,6-X2S(2). Further, FIG. 49 is also a view plotting, based on the results illustrated in FIGS. 43 to 48, the fluorescence intensities detected at the fluorescence wavelength at which the respective fluorescence peaks were observed. FIG. 50 is a graph illustrating a relationship between an amount of Rev added and a recovery rate of the fluorescence intensity. In FIG. 49, the vertical axis represents the fluorescence intensity. In FIG. 50, the vertical axis represents the recovery rate of the fluorescence intensity. In each of FIGS. 49 and 50, the horizontal axis represents the amount of Rev added. That is, each of FIGS. 49 and 50 reflects amounts of the above compounds liberated from RREs due to the addition of Rev.
The recovery rate of the fluorescence intensity was obtained by dividing (i) a maximum value of the fluorescence intensity detected at each Rev concentration ranging from 0 μM to 4.0 μM in each of FIGS. 43 to 48 by (ii) a maximum value of the fluorescence intensity of the curved line at the top in each of FIGS. 43 to 48.
In this Example, 1-Pyrenemethanamide, hydrochloride was used to measure a binding affinity between a test substance and RRE. As the test substance, Rev protein used in Example 5 was used.
Firstly, in the same manner as in Example 3, 1-Pyrenemethanamide, hydrochloride and RRE were dissolved in a cacodylate buffer solution (sodium cacodylate: 10 mM, pH 7.0; NaCl: 100 mM) each at 2 μM, so that a 1-Pyrenemethanamide, hydrochloride-RRE solution was prepared.
To the solution, Rev protein was added in steps at 0 μM, 0.4 μM, 0.8 μM, 1.2 μM, 1.6 μM, 2.0 μM, 2.4 μM, 2.8 μM, 3.2 μM, 3.6 μM, and 4.0 μM. Further, the solution at each concentration was irradiated with light having an excitation wavelength of 340 nm, and a fluorescence intensity was measured. A device used for measuring a fluorescence intensity and a variation in a slit width were the same as those in Example 13.
FIG. 55 is a view illustrating a result of the measurement of a binding affinity between Rev protein and RRE. The horizontal axis represents the fluorescence wavelength, whereas the vertical axis represents the fluorescence intensity. […] Further, along a bottom-to-top direction, the curved lines, showing the respective results, are arranged in order of increasing amount of the test substance which was added. […]

[2] = system: RNAs of FIG. 2 (SEQ ID NOs: 1 through 3), with or without bulge structure; test: Evaluation of binding between xanthone fluorescent molecule and RNA (fluorescence before and after mixing RNA); conditions: 10 μM compound
Protocol: Next, binding between X2S and RNAs was evaluated. The RNAs used in the present example had the structure illustrated in FIG. 2. FIG. 2 is a diagram schematically illustrating the structure of the RNAs used in the present example. The RNAs used in the present example had sequences shown in SEQ ID NOs: 1 through 3.
The symbol N in FIG. 2 represents either a base out of A, U, C, and G, or no base. Thus, in a case where a particular RNA as in FIG. 2 has N representing a base out of A, U, C, and G, the RNA is an RNA formed by hybridization of an RNA having the base sequence shown in SEQ ID NO: 1 with a single strand RNA having the base sequence shown in SEQ ID NO: 2. On the other hand, in a case where a particular RNA as in FIG. 2 has N representing no base, the RNA is an RNA formed by hybridization of an RNA having the base sequence shown in SEQ ID NO: 1 with an RNA having the base sequence shown in SEQ ID NO: 3.
This also applies to other bases. The RNAs used in the present example were purchased from Hokkaido System Science Co., Ltd.
Firstly, X2S was mixed in a cacodylate buffer solution (sodium cacodylate: 10 mM, pH 7.0; NaCl: 100 mM) at 10 μM, so that an X2S solution was obtained. The X2S solution was irradiated with light having an absorption maximum of 371±3 nm, and a fluorescence intensity was then measured. The fluorescence intensity was measured with use of a device (product number: RF-5300PC) available from Shimadzu Corporation. For each type of the RNAs, the fluorescence intensity was measured after the RNA was mixed in the X2S solution at 30 μM.
FIGS. 3 and 4 compare the fluorescence intensities measured before and after the RNA was mixed. […] The horizontal axis represents the fluorescence wavelength, whereas the vertical axis represents the fluorescence intensity. FIG. 4 is an enlarged graph corresponding to the fluorescence intensity of 5 A.U. in FIG. 3 and its vicinity.
Binding between X1S and RNAs was evaluated by a method identical to the method described in Example 2, except that X1S was used instead of X2S. […]

RRE [3] = test: Displacement assay using X2S; format: binding, HIV-1; conditions: for binding affinity with respect to RRE / change of fluorescence intensity on addition of test substance: X2S and RRE each 2 μM, test substance 0-4.0 μM; for change of fluorescence intensity on addition of test substance: 453 nm
Source text: In this Example, X2S was used to measure a binding affinity between a test substance and RRE. As the test substance, Rev protein (supplied by Professor Takashi MORII, Graduates School of Energy Science, Kyoto University), aminoglycoside antibiotic neomycin (available from Sigma-Aldrich, product number; N-1876) (hereinafter, simply referred to as “neomycin”), and thrombin (available from Bachem, product number; AG H-8550) were used. […] The structure of Rev protein is shown in FIG. 9, and the amino acid sequence of Rev protein is shown in SEQ ID NO: 5. FIG. 9 is a view schematically illustrating the structure of Rev protein. Further, the structure of thrombin is shown in FIG. 10, and the amino acid sequence of thrombin is shown in SEQ ID NO: 6. FIG. 10 is a view schematically illustrating the structure of thrombin.
Firstly, in the same manner as in Example 3, X2S and RRE were dissolved in a cacodylate buffer solution (sodium cacodylate: 10 mM, pH 7.0; NaCl: 100 mM) each at 2 μM. Thus, an X2S-RRE solution was prepared.
To the X2S-RRE solution, Rev protein was added in steps at 0 μM, 0.4 μM, 0.8 μM, 1.2 μM, 1.6 μM, 2.0 μM, 2.4 μM, 2.8 μM, 3.2 μM, 3.6 μM, and 4.0 μM. Further, a fluorescence intensity was measured at each concentration. Similarly, to the X2S-RRE solution, neomycin was added in steps at 0 μM, 0.4 μM, 0.8 μM, 1.2 μM, 1.6 μM, 2.0 μM, 2.4 μM, 2.8 μM, 3.2 μM, 3.6 μM, and 4.0 μM. Further, a fluorescence intensity was measured at each concentration. Similarly, to the X2S-RRE solution, thrombin was added in steps at 0 μM, 0.4 μM, 0.8 μM, 1.2 μM, 1.6 μM, 2.0 μM, 2.4 μM, 2.8 μM, 3.2 μM, 3.6 μM, and 4.0 μM. Further, a fluorescence intensity was measured at each concentration. The fluorescence intensities were measured in the same manner as that described in Example 2.
FIG. 11 is a view illustrating a result of the measurement of a binding affinity between Rev protein and RRE; FIG. 12 is a view illustrating a result of the measurement of a binding affinity between neomycin and RRE; and FIG. 13 is a view illustrating a result of the measurement of a binding affinity between thrombin and RRE. In each of FIGS. 11 to 13, the horizontal axis represents the fluorescence wavelength, whereas the vertical axis represents the fluorescence intensity. […] Furthermore, along the direction of the arrow extending from the curved line at the bottom, the curved lines are arranged in order of increasing amount of the test substance which was added.
FIG. 14 is a view plotting the fluorescence intensities at a fluorescence wavelength of 453 nm shown in the results illustrated in FIGS. 11 to 13. The horizontal axis represents the concentration of each test substance, whereas the vertical axis represents the fluorescence intensity. In FIG. 14, the circle marks represent the result obtained in the case involving use of Rev protein, the square marks represent the result obtained in the case involving use of neomycin, and the triangle marks represent the result obtained in the case involving use of thrombin.
A displacement assay using X2S was performed in the same manner as that described in Example 5, except that, in this Example, fluorescence was measured also when Rev protein was added at concentrations of 4.4 μM and 4.8 μM.
FIG. 16 is a view illustrating the result of the displacement assay using X2S. The horizontal axis represents the fluorescence wavelength, whereas the vertical axis represents the fluorescence intensity.

Molecule	fluorescence intensity in displacement assay (RRE [1]; Rev protein 0-4.0 μM)	recovery rate of the fluorescence intensity (RRE [1]; Rev protein 0-4.0 μM)	binding affinity with respect to RRE (RRE [3])	change of fluorescence intensity on addition of test substance (RRE [3])	also measured
NCCOc1ccc2c(=O)c3ccc(OCCN)cc3oc2c1 [3,6-X2S(2), 3,6-bis(2-aminoethoxy)xanthen-9-one]	low	almost equal to that of X2S	–	–	–
NCCOc1ccc2oc3ccccc3c(=O)c2c1 [X1S, 2-(2-aminoethoxy)xanthen-9-one]	–	–	–	–	binding to RNAs ([2]; 30 μM RNA (A, U, C, G bulge or no bulge), cacodylate buffer pH 7.0, NaCl 100 mM): binds to RNAs regardless of whether the bulge structure is present; detected decrease in the fluorescence intensity on mixing RNA ([2]; 30 μM RNA, compared with X2S): small as compared to the case of X2S
CC(N)COc1ccc2oc3ccc(OCC(C)N)cc3c(=O)c2c1 (stereo not shown) [X2S(2-Me), 2,7-bis(2-methyl-2-aminoethoxy)xanthen-9-one]	lower than that of X2S	highest	–	–	–
Rev protein: Rev protein, SEQ ID NO: 5, known to bind to RRE; test substance (TRQARRNRRRRWRERQRAAAAR; Human immunodeficiency virus type 1)	–	–	significantly high binding affinity	increased the fluorescence intensity	fluorescence intensity recovered (RRE [3]; X2S-RRE solution, FIG. 14, 453 nm): approximately 80%; change of fluorescence intensity on addition of Rev protein (RRE [1]; 1-Pyrenemethanamide, hydrochloride and RRE each 2 μM, excitation 340 nm): increased the fluorescence intensity; binding affinity of Rev protein with respect to RRE (RRE [1]; measured with X2S, X2S(3), X2S(4), X2S(5), X2S(2-Me), 3,6-X2S(2), each 2 μM with RRE): significantly high binding affinity; change of fluorescence intensity on addition of Rev protein (RRE [1]; xanthone compounds and RRE each 2 μM, Rev protein 0-4.0 μM): increased the fluorescence intensity
neomycin [reference compound]	–	–	lower binding affinity with respect to RRE compared with Rev protein	slightly increased the fluorescence intensity	–
thrombin	–	–	does not bind to RRE	hardly increased the fluorescence intensity	–
